In patent publication US5376658A, “5,10-methylene-tetrahydrofolate as a modulator of a chemotherapeutic agent” (priority 1993, dated 1994):
One block for each compound: values may come before it.

How the values were obtained:
[1] = tested on: transplanted colon cancer; assay: Comparison of natural and unnatural CH2 FH4 diastereomers in rats bearing transplanted colon cancer; type: in vivo, rat; conditions: 15 mg/kg, Day 17, no fluorinated pyrimidine
Excerpt: A study has been completed, for comparison of natural (6R)-CH2 FH4 and unnatural (6S)-CH2 FH4 diastereomers. The preparation of the two forms was done as described by Kisliuk, et al., Cancer Treat. Rep. 61:647-50 (1977), using DEAE-cellulose column chromatography, with elution by potassium bicarbonate buffer. The two separate major peaks were individually pooled, lyophilized to dryness, and used for injection. As in the original detailed description of the method of Kisliuk, et al. (Biochem. 20:929-934), the methylene content was substoichiometric with tetrahydrofolate (FH4). That is, methylene units were present in apparently lower concentration than FH4 concentrations.
Rats bearing the transplanted colon cancer, as described in Example 4 and in Carlsson, et al., Anticancer. Res. 10:813-816, 1991, were treated with either the (6R)-CH2 FH4 or the (6S)-CH2 FH4, formulated and injected according to the methods described in Table IV, except that the injected amounts were 15 mg/kg per dose.
At Day 17, the rats were sacrificed, and the tumors were measured for both volume end weight. Volumes were calculated by the equation for an ellipsoid in revolution, V=(4/3)πab^2 were a=the long diameter/2 and b=the perpendicular short diameter/2.
The filled circles are the weights and volumes of tumors of rats treated with the unnatural (6S)-CH2 FH4 diastereomer (mostly (6R)-FH4 material in dilute solution and blood); the triangles are results for the natural (6R)-CH2 FH4 (mostly (6S)-FH4); and the open circles, control non-treated tumors. It is emphasized here that no fluorinated pyrimidine was used, just the folate injections.

L. casei TS-[3H]FdUMP = target: T1, L. casei TS-[3H]FdUMP (Lacticaseibacillus casei, UniProt P00469); assay: TS-[3H]FdUMP-folate ternary complex binding assay
T1 sequence (P00469 1-316): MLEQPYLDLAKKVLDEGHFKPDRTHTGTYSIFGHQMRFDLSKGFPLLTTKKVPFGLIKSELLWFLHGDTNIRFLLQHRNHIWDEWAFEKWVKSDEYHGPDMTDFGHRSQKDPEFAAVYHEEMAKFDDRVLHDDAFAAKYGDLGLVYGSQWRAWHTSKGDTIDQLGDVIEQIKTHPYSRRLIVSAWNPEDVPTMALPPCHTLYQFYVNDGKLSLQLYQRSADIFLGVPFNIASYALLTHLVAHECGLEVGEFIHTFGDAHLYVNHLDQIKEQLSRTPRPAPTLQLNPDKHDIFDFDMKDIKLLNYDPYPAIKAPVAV
Protocol: The CH2 FH4 was prepared as the racemic (6R, S) material from (6R, S)-FH4 and excess formaldehyde, and DEAE-column isolation as described in FIG. 1. This preparation was essentially free of free formaldehyde based on colorimetric assay of bulk material (Nash, Biochem. J. 55:416-21 (1953)).
At all concentrations (total assays volume 150 μl ), excess formaldeyde was required to obtain maximal binding (which was still only 19.3% of stoichiometric binding). A notable effect was the increasing need for formaldehyde addition with increasing dilution, to obtain maximal CH2 FH4 assay recovery.
TS[^3 H]FdUMP-folate ternary complex formation without formaldehyde
addition was 38.5% of the value for the natural (6R)CH2 FH4 wit
6 mM formaldehyde added. (About 1 pmole of parent CH2 FH4 was
^b Only 11.8 ± 7.9% of maximal L. casei TS[^3 H]FdUMP-folate
ternary complex formation (using 6 mM formaldehyde concentration) which i
The unnatural diastereomer, (6S)-CH2 FH4 prepared by DEAE-column,potassium bicarbonate separation from the natural diasteromer as described in Example 8, was dissolved in 0.2M Tris-HCl buffer, pH 7.0, containing sodium ascorbate (100 mM) and 2-mercaptoethanol. This preparation was from the same lot of material described in Example 8. As noted in the footnote of Table VII, in the absence of supplemental formaldehyde, the yield of dextrancharcoal isolated complex was 38.5% of the value for the natural (6R)-CH2 FH4 (with added 6 mM formaldehyde).

CCRF-CEM cells = assay: Intracellular CH2 FH4 and FH4 levels in CCRF-CEM cells after exposure to 10 μM folate; type: cell-based, human; conditions: for Intracellular FH4: control 3.08
Excerpt: In further support of the hypothesis that objectives of CH2 FH4 administration are increases in FH4 and FH4 /CH2 FH4 values, are the results of a cell culture study, shown in Table VI, comparing the relative effectiveness of different folate forms on assayed intracellular levels of the two folates.

[2] = tested on: thymidylate synthase (TS); assay: TS level in serial tumor biopsies, patient three (skin metastasis from gastric carcinoma), [6-3H]FdUMP ligand-binding assay; type: in vivo, human; conditions: for TS, % of Baseline / Thymidylate synthase (TS): 30 mg IV; for Thymidylate synthase (TS): baseline 1.31
Protocol: The assays were performed by the methods described in Spears et al., Adv. […] The serial biopsies were done following single dose administration of CH2 FH4.
The assays were also performed on the day of CH2 FH4 administration.

[3] = cited from earlier work
[4] = tested on: thymidylate synthase (TS); assay: TS level in serial tumor biopsies, patient one (rectal adenocarcinoma), [6-3H]FdUMP ligand-binding assay; type: in vivo, human
Protocol: CH2 FH4 was formulated, assayed, and administered to 2 patients who had previously been treated with 5-FU. The assays were performed by the methods described in Spears et al., Adv. Exp. Med. Biol. 244:98-104 (1988). In the data shown, the TS inhibition profiles that resulted from CH2 FH4 administration were not due to concurrent 5-FU dosing. The most recent exposure to 5-FU in these cases was slightly greater than a week prior to the study date, with the patients eligible, however, from the standpoint of toxicity evaluation to receive the weekly dose of 5-FU. Thus, residual FdUMP levels from previous exposure, below the detectable limits for assay, were expected to be present (See spears et al. Mol. Pharmacol. 27:302-07 (1985)). The serial biopsies were done following single dose administration of CH2 FH4.
The formulation of CH2 FH4 was as described in Example 2, and was performed on the day of CH2 FH4 administration. The assays were also performed on the day of CH2 FH4 administration.
^a On Week #1 the CH2 FH4 was formulated at pH 2.0,
DEAEpurified; On Week #2 the preparation was pH 9.0, with 6 mM (final
concentration) CH2 O added, no DEAE step used.
^c By [6^3 H]FdUMP ligandbinding assay (Spears et al., Cancer Res
In patient one, a person with locally unresectable advanced rectal adenocarcinoma, the TS pharmacodynamic tumor tissue analyses were done twice, nine days apart. Following study, the person continued to receive intermittent bolus 5-FU. […] There were modifications of the CH2 FH4 formulation between the 2 pharmacodynamic studies (See Table III). In the first study week, the pH was not adjusted up from 2.0, after DEAE column isolation of the Sigma (6R,S)-CH2 FH4. Thus, some of this folate may also have been 5,10-methenyl-tetrahydrofolate. In the second study week, the pH was adjusted up to 9.0, and no DEAE step was used (with therefore 6 mM formaldehyde being present in the 40-cc volume for injection).

[5] = tested on: CH2 FH4 and FH4 in breast cancer biopsies; assay: CH2 FH4 and FH4 levels in breast cancer biopsies during L-serine infusion after high-dose (6R,S)-leucovorin; type: in vivo, human; parameters: CH2 FH4 / FH4: unit not given here; conditions: patient two
Protocol: As noted previously (see pages 5-6) and mentioned in C. P. Spears, et al., Proc. Am. Soc. Clin. Oncol. 8:69 (1989), the inventors have used pharmacologic intervention to convert intracellular FH4 to CH2 FH4 in patients receiving high-dose reduced folate therapy combined with weekly i.v. bolus 5-FU, 450 mg/sq. m. The method used was administration of i.v. L-serine, 15.0 grams, over 1 hour after the end of overnight high-dose (6R,S)-leucovorin i.v. infusion.
In contrast to the data shown in Tables II and III, the inventors were able to also assay for intratumoral FH4 in addition to CH2 FH4 (this latter is also referred to as "FBC" in those Tables or Folate-Binding Capacity), at time points during this pharmacologic forcing of metabolism of FH4 to CH2 FH4 through the enzyme, serine hydroxymethyltransferase. This enzyme splits a carbon of L-serine to generate formaldehyde in the presence of FH4.
^a Minutes after initiation of 15.0 gram LSerine i.v. 60min infusion,
after end of overnight (6R,S)leucovorin highdose i.v. infusion.
^b Assays performed as described (C.P. Spears et al., Adv. Exp. Med.

[6] = 0 min (start of L-serine, after overnight leucovorin)

% of maximal L. casei TS-[3H]FdUMP-folate ternary complex formation (L. casei TS-[3H]FdUMP; maximal = using 6 mM formaldehyde): 11.8 ± 7.9%
SMILES: Nc1nc2c(c(=O)[nH]1)N1CN(c3ccc(C(=O)N[C@@H](CCC(=O)O)C(=O)O)cc3)C[C@H]1CN2 [(6R)-CH2 FH4]
Tumor volume ± SE ([1]; control 7.81): 12.58 | Tumor weight ± SE ([1]; control 7.93): 9.11 | Intracellular CH2 FH4 (CCRF-CEM cells; 90 min exposure, control 0.04): 0.19 nmole/10^9 Cells | Intracellular FH4 (CCRF-CEM cells; 90 min exposure): 8.81 nmole/10^9 Cells

SMILES: CN1c2c(nc(N)[nH]c2=O)NC[C@H]1CNc1ccc(C(=O)N[C@@H](CCC(=O)O)C(=O)O)cc1 [(6R,S)-MTHF, 5-methyl-(6R, S)-tetrahydrofolate]
Intracellular FH4 (CCRF-CEM cells; 16-hr exposure): 10.55 nmole/10^9 Cells

SMILES: Nc1nc2c(c(=O)[nH]1)N(C=O)[C@@H](CNc1ccc(C(=O)N[C@@H](CCC(=O)O)C(=O)O)cc1)CN2 [(6S)-LV]
Intracellular FH4 (CCRF-CEM cells; 16-hr exposure): 10.64 nmole/10^9 Cells

SMILES: Nc1nc2c(c(=O)[nH]1)N1CN(c3ccc(C(=O)N[C@@H](CCC(=O)O)C(=O)O)cc3)CC1CN2 (stereo partly shown) [CH2 FH4, 5,10-methylene-tetrahydrofolate]
TS, % of Baseline ([2]; 10 min): 19.8% | TS, % of Baseline ([2]; 20 min): 42.7% | TS, % of Baseline ([2]; 40 min): 75.6% | TS, % of Baseline ([2]; 60 min): 112.2% | Thymidylate synthase (TS) ([2]; biopsy at 10 min): 0.26 pmol/g | Thymidylate synthase (TS) ([2]; biopsy at 20 min): 0.56 pmol/g | Thymidylate synthase (TS) ([2]; biopsy at 40 min): 0.99 pmol/g | Thymidylate synthase (TS) ([2]; biopsy at 60 min): 1.47 pmol/g | TS inhibition / decrease over baseline value ([2]; 10 min (first biopsy)): 80.2% | TS inhibition ([2]; 20 min): 57.3% | storage stability in solution ([3]; column-isolated, under argon at -80° C.): up to a year without decomposition | stability in the presence of oxygen ([3]; solutions and powder, oxygen, catalyzed by light, acid, base, heavy metals): unstable | TS, % of Baseline ([4]; Week #1, 35 mg IV, 10 min): 212.4% | Thymidylate synthase (TS) ([4]; Week #1, 35 mg IV, 10 min, baseline 5.77): 6.28 pmol/g | TS, % of Baseline ([4]; Week #1, 35 mg IV, 20 min): 43.7% | Thymidylate synthase (TS) ([4]; Week #1, 35 mg IV, 20 min, baseline 5.77): 2.26 pmol/g | TS, % of Baseline ([4]; Week #1, 35 mg IV, 30 min): 114.1% | Thymidylate synthase (TS) ([4]; Week #1, 35 mg IV, 30 min, baseline 5.77): 5.90 pmol/g | TS, % of Baseline ([4]; Week #1, 35 mg IV, 24 hr): 122.2% | Thymidylate synthase (TS) ([4]; Week #1, 35 mg IV, 24 hr, baseline 5.77): 6.32 pmol/g | TS, % of Baseline ([4]; Week #2, 50 mg IV, 10 min): 181.7% | Thymidylate synthase (TS) ([4]; Week #2, 50 mg IV, 10 min, baseline 5.64): 10.25 pmol/g | TS, % of Baseline ([4]; Week #2, 50 mg IV, 20 min): 104.8% | Thymidylate synthase (TS) ([4]; Week #2, 50 mg IV, 20 min, baseline 5.64): 5.91 pmol/g | TS, % of Baseline ([4]; Week #2, 50 mg IV, 30 min): 35.8% | Thymidylate synthase (TS) ([4]; Week #2, 50 mg IV, 30 min, baseline 5.64): 2.02 pmol/g | TS, % of Baseline ([4]; Week #2, 50 mg IV, 40 min): 61.3% | Thymidylate synthase (TS) ([4]; Week #2, 50 mg IV, 40 min, baseline 5.64): 3.46 pmol/g | maximal binding, % of stoichiometric binding (L. casei TS-[3H]FdUMP; 0.2M Tris pH 7.4, excess formaldehyde (6 mM)): 19.3%

SMILES: Nc1nc2c(c(=O)[nH]1)N=C(CNc1ccc(C(=O)N[C@@H](CCC(=O)O)C(=O)O)cc1)CN2 [DHF, Dihydrofolate]
Intracellular FH4 (CCRF-CEM cells; 16-hr exposure): 7.10 nmole/10^9 Cells

SMILES: Nc1nc2c(c(=O)[nH]1)N(C=O)[C@H](CNc1ccc(C(=O)N[C@@H](CCC(=O)O)C(=O)O)cc1)CN2 [LV, (6R,S)-5-formyl-tetrahydrofolate]
Ratio of FH4/CH2 FH4 ([5]; 0 min): 12.2 | CH2 FH4 [5, 6]: 0.194 | FH4 [5, 6]: 2.370
